In ChEMBL document CHEMBL3872241, “Synthesis and bioactivity evaluation of 2,3-diaryl acrylonitrile derivatives as potential anticancer agents” (Bioorg Med Chem Lett, 2017):

Experiments:
HCT-116 = test: Selectivity index, ratio of IC50 for human L02 cells to IC50 for human HCT116 cells; type: functional
[1] = Cytotoxicity against human Bel7402 cells assessed as cell growth inhibition after 48 hrs by MTT assay; type: functional, cell-based; details: Bel-7402, 48 h
[2] = Cytotoxicity against human HCT116 cells assessed as cell growth inhibition after 48 hrs by MTT assay; type: functional, cell-based; details: HCT-116, 48 h
Bel-7402 = test: Selectivity index, ratio of IC50 for human L02 cells to IC50 for human Bel7402 cells; type: functional
[3] = Cytotoxicity against human HeLa cells assessed as cell growth inhibition after 48 hrs by MTT assay; type: functional, cell-based
[4] = Cytotoxicity against human L02 cells assessed as cell growth inhibition at 100 uM after 48 hrs by MTT assay; type: toxicity, cell-based; details: read-out: GI
[5] = Cytotoxicity against human HeLa cells assessed as cell growth inhibition at 100 uM after 48 hrs by MTT assay; type: functional; details: read-out: GI
[6] = Cytotoxicity against human L02 cells assessed as cell growth inhibition after 48 hrs by MTT assay; type: toxicity, cell-based
[7] = Cytotoxicity against human Bel7402 cells assessed as cell growth inhibition at 100 uM after 48 hrs by MTT assay; type: functional; details: Bel-7402, 48 h, read-out: GI
[8] = Cytotoxicity against human HCT116 cells assessed as cell growth inhibition at 100 uM after 48 hrs by MTT assay; type: functional; details: HCT-116, 48 h, read-out: GI
[9] = Cell cycle arrest in human HeLa cells assessed as accumulation at S phase at 0.1 to 1 uM after 24 hrs by propidium iodide-based FACS analysis (reference value: 31.26%); type: functional
HeLa = test: Selectivity index, ratio of IC50 for human L02 cells to IC50 for human HeLa cells; type: functional
[10] = Cell cycle arrest in human HeLa cells assessed as accumulation at G0/G1 phase at 0.1 to 1 uM after 24 hrs by propidium iodide-based FACS analysis (reference value: 61.71%); type: functional
[11] = Cell cycle arrest in human HeLa cells assessed as accumulation at G2/M phase at 0.1 to 1 uM after 24 hrs by propidium iodide-based FACS analysis (reference value: 7.12%); type: functional

Row | SMILES | Ratio IC50 (HCT-116) | IC50 [1] [µM] | IC50 [2] [µM] | Ratio IC50 (Bel-7402) | IC50 [3] [µM] | inhibition at 48 h, 100 µM [4] [%] | inhibition of growth at 100 µM [5] [%] | IC50 at 48 h [6] [µM] | inhibition of growth at 100 µM [7] [%] | inhibition of growth at 100 µM [8] [%] | Activity [9] [%] | Ratio IC50 (HeLa) | Activity [10] [%] | Activity [11] [%]
1 | COc1cc(OC)cc(/C(C#N)=C/c2ccccc2F)c1 | >8.19 | 72.6 | 12.2 | >1.38 | > 100 | 34.6 | 44.4 | > 100 | – | – | – | – | – | –
2 | COc1cccc(/C=C(\C#N)c2cc(OC)cc(OC)c2)c1 | – | > 100 | > 100 | – | > 100 | 19.5 | 36.4 | > 100 | 12.4 | 41.1 | – | – | – | –
3 | COc1cc(OC)cc(/C(C#N)=C/c2cccc(C(F)(F)F)c2)c1 | – | > 100 | > 100 | – | > 100 | 29.4 | 18.3 | > 100 | 20 | 28.7 | – | – | – | –
4 | COc1cc(OC)cc(/C(C#N)=C/c2ccc(N(C)C)cc2)c1 | >169.49 | 1.74 | 0.59 | >57.47 | > 100 | 26.8 | 44.4 | > 100 | – | – | – | – | – | –
5 | CCOc1ccc(/C=C(\C#N)c2cc(OC)cc(OC)c2)cc1 | >769.23 | 0.66 | 0.13 | >151.52 | 7.77 | 34.7 | – | > 100 | – | – | 47.6 | >12.87 | 0.74 | 51.6
6 | COc1cc(OC)cc(/C(C#N)=C/c2ccc(Br)cc2)c1 | >8.79 | > 100 | 11.4 | – | 4.2 | 36 | – | > 100 | 31.6 | – | 30.1 | >23.81 | 0.7 | 69.9
7 | COc1cc(OC)cc(/C(C#N)=C/c2ccccc2C(F)(F)F)c1 | – | > 100 | > 100 | – | > 100 | 33.6 | 4.9 | > 100 | 11.4 | 26.6 | – | – | – | –
8 | COc1cc(OC)cc(/C(C#N)=C/c2ccco2)c1 | >30.21 | 75.7 | 3.31 | >1.32 | 112 | 38.5 | – | > 100 | – | – | – | – | – | –
9 | COc1cc(OC)cc(/C(C#N)=C/c2ccccc2Cl)c1 | >11.57 | 28.5 | 8.64 | >3.51 | 28.2 | 11.8 | – | > 100 | – | – | – | – | – | –
10 | CCCCOc1ccc(/C=C(\C#N)c2cc(OC)cc(OC)c2)cc1 | – | > 100 | > 100 | – | > 100 | 35.7 | 18.6 | > 100 | 15.4 | 45 | – | – | – | –
11 | COc1cc(OC)cc(/C(C#N)=C/c2ccc(OCc3ccccc3)cc2)c1 | – | > 100 | > 100 | – | > 100 | 32.7 | 20.7 | > 100 | 18.6 | 18.7 | – | – | – | –
12 | CCOc1cccc(/C=C(\C#N)c2cc(OC)cc(OC)c2)c1 | – | > 100 | > 100 | – | > 100 | 18.5 | 8.9 | > 100 | 5.1 | 38.8 | – | – | – | –
13 | COc1cc(OC)cc(/C(C#N)=C/c2cccc(Br)c2)c1 | – | > 100 | > 100 | – | > 100 | 43.2 | 40.2 | > 100 | 19.8 | 38.2 | – | – | – | –
14 | COc1cc(OC)cc(/C(C#N)=C/c2ccc(F)cc2)c1 | – | > 100 | > 100 | – | > 100 | 2.5 | 45.8 | > 100 | 9.3 | 27.8 | – | – | – | –
15 | COc1cc(OC)cc(/C(C#N)=C/c2ccccn2)c1 | 14.66 | 80.5 | 5.15 | 0.94 | 56 | – | – | 75.5 | – | – | – | – | – | –
